Source: patent publication US20250314668A1, “DNAZYMES FOR SENSING AND IMAGING TARGET MOLECULES” (BOARD OF REGENTS, THE UNIVERSITY OF TEXAS SYSTEM, priority 2024, published 2025)
Read-outs that look alike come from different tables or passages of the source. In the oligonucleotide strings, read from the 5' end, every base follows the letter of its sugar. An asterisk marks phosphorothioate; unmarked linkages are phosphodiester. Other units and linkages are bracketed, terminal groups are in braces. A string of capitals states the bases alone. {3IABkFQ} = Iowa Black FQ quencher; d = 2'-deoxy (DNA); m = 2'-O-methyl

What was measured:
SH-SY5Y cells = test: Fluorescence imaging of Cu^+ and Cu^2+ in live SH-SY5Y cells (PDTC, BCS, Aβ40); assay type: cell-based, human
cultured cell lines = test: Iron redox changes in cultured cell lines with ferroptosis inducers and NCOA4 regulators; assay type: cell-based
HepG2 or Hela cells = test: Simultaneous imaging of labile Fe^2+ and Fe^3+ in living cells treated with Tf or DFO; assay type: cell-based; details: treated cells
Procedure: For delivery of DNAzyme sensors using PEI (66, 67), the corresponding Fe(II)-H5-ErS, Fe(II)-H5-iErS, Fe(III)-B12-ErS, and Fe(III)-B12-iErS (final concentration of 10 μM) were mixed in the Fe^2+ buffer and Fe^3+ buffer separately. The mixtures were annealed at 95° C. for 5 min and stored at room temperature to allow full hybridization. PEI (25 kDa) was dissolved in water at 1 mg/ml. […] The normal cell medium was replaced with iron-deficient medium before the PEI-ErS or PEI-iErS was added to the cells grown in the plates.
After incubating HepG2 cells with PEI-ErS or PEI-iErS complex for 4 hours, cells were washed with phosphate-buffered saline (PBS) twice to remove excess amounts of complexes in medium. Then, the cells were stained by Hoechst 33258 for 15 min. Images were obtained using a Zeiss LSM 880 confocal microscope at 63× oil objective lens with numerical aperture 1.40 and immersion medium Immersol 518 F (Zeiss) at the UIUC IGB Core Facilities. Florescence emission of Hoechst 33258 was measured over 450 to 500 nm with excitation at 401 nm. Fe(II)-H5 was excited by 488 nm and measured over 500 to 550 nm, and Fe(III)-B12 was excited at 633 nm and measured over 640 to 700 nm. A laser power of 67% and pinhole size of 1 […] (AU) were used for the cellular images. Acquired images were analyzed by ImageJ using JACoP (88, 89). No background subtraction, Z-stacks, Gaussian blur filter, or change thresholds were performed for visualizing the figures. For cell fluorescence quantification, the study quantified the average fluorescence signals intensity in five cells (for TurboFect transfected cells) or five LysoTracker-labeled regions in different cells (for PEI transfected cells), per picture and three pictures per group with Image J (88), for the statistical comparison between groups.
Simultaneous imaging of labile Fe^2+ and Fe^3+ in living cells: HepG2 or Hela cells were cultured in glass-bottom dishes until about 70% confluence. The cells were pretreated with iron-deficient MEM containing either 100 μM DFO, 100 μM ferric ammonium citrate, […] holo-Tf, or 50 μM Tf for 4 hours, and then, the medium was replaced with an iron-deficient MEM containing PEI-ErS or PEI-iErS complexes or Opti-MEM containing 1 μl of TurboFect transfection reagent as described above for 4 hours. Before imaging, the cells were stained by LysoTracker Red and Hoechst 33258 for 15 min. After washing with PBS, the cells were incubated in iron-deficient MEM or regular DMEM, respectively, during the imaging.
Data processing and statistical analysis: To have a direct comparison of the iron amount between groups, the background signals were normalized by subtracting the fluorescence signals in iErS groups from the ErS groups (F-F0). No Z-stacks or change thresholds were used for statistical analysis. Graphs were plotted with GraphPad (GraphPad Software Inc.) or Origin (OriginLabs Corporation) and correspond to a single experiment. Bars represent means±SEM. Two-tailed distribution and two-sample equal variance t test were used for analyzing significance. Dixon's Q tests were performed to identify and exclude outliners. *P<0.05, **P<0.01, and ***P <0.001. […] The presented data described the quantification from single representative replicates from those biological replicates.

[1] = Copper sensor signal turn-on and background in solution (inactive controls, upgraded version); assay type: biochemical; details: for activity of inactive sequences to fluorophore labeled substrates: screening of Cu^2+ DNAzyme inactive sequences
Procedure: FIGS. 14A-14B depict fluorescence resulting of upgraded Cu DNAzyme. The concentration of Cu^2+ is 8 μM, the concentration of ascorbate is 50 μM.
Since the DNAzyme sensors are exposed to various nucleic acid enzymes in biological samples during imaging, it is common to have some extent of sensor degradation and dehybridization, which can increase the background signal. Although the study applied modifications to the end of DNA strands to minimize the exonuclease activities, the background could not be fully removed. Thus, it is critical to estimate the background signal levels for accurate background subtraction and more precise signal quantification.
In this iE design, the catalytic core sequence are converted into complement sequence of the original active sequences.

[2] = Point mutation gel cleavage assay of Fe^3+ B12 DNAzyme and substrate (heat map); assay type: biochemical; details: 100 μM FeCl3, pH 5.5, overnight; for activity of mutated substrate strand normalized to original Fe^3+ B12 Substrate: original DNAzyme strand
Procedure: (§1) FIG. 5 depicts a heat map illustrating the impact of point mutations within the catalytic core of the Fe^3+ B12 DNAzyme, against the unaltered Fe^3+ B12 substrate strand for comparative analysis with 5 mM Bis Tris, 40 mM Sodium Acetate, 200 mM NaCl at pH 5.5 with 100 μM FeCl3. The reaction occurred overnight at room temperature and analyzed by polyacrylamide gel electrophoresis.
as §1, with “FIG. 6” for “FIG. 5”, “B12 Substrate strand,” for “B12 DNAzyme,”, “B12 DNAzyme” for “B12 substrate”
(§2) Point mutations were intentionally introduced into the Fe^3+ B12 DNAzyme catalytic core, and subsequently assessed in comparison to the unaltered Fe^3+ B12 substrate strand under controlled reaction conditions. These conditions included a solution comprising 5 mM Bis Tris, 40 mM Sodium Acetate, 200 mM NaCl at pH 5.5, with concentrations of 250 nM for both the mutated B12 DNAzyme Strand and the FAM-labeled Original B12 Substrate Strand, along with 100 μM FeCl3. The reaction proceeded overnight at ambient temperature, followed by analysis via electrophoresis on a 15% denaturing gel.
as §2, with “Fe^3+ B12 Substrate Strand's catalytic core,” for “Fe^3+ B12 DNAzyme catalytic core,”, “Fe^3+ B12 DNAzyme strand under” for “Fe^3+ B12 substrate strand under”, “both the Original B12 DNAzyme” for “both the mutated B12 DNAzyme”, “the FAM-labeled mutated B12 Substrate” for “the FAM-labeled Original B12 Substrate”

[3] = PAGE gel activity assays of Fe^3+ B12 DNAzyme (cleavage site, truncation, pH, buffer, mutation combinations, selectivity); assay type: biochemical; details: presence of Fe^3+
Source text: RNA Cleavage Dependence of Fe^2+ H5 and Fe^3+ B12 DNAzymes: To investigate the Fe^2+ H5 and Fe^3+ B12 DNAzymes, various cleavage site modifications were incorporated into the substrate strands. The original Fe^2+ H5 DNAzyme was combined with Fe^2+ H5 substrate strands containing either a 2′-hydroxyl (2′OH), 2′-hydrogen (2′H), or 2′O-methyl (2′OMe) at the cleavage site. The original Fe^2+ H5 DNAzyme cleaves the Fe^2+ H5 substrate strand containing 2′OH at the cleavage site in the presence of Fe^2+ under anaerobic conditions. […] Similarly, the original Fe^3+ B12 DNAzyme was combined with Fe^3+ B12 substrate strands containing either 2′OH, 2′H, or 2′OMe at the cleavage site. The original Fe^3+ B12 DNAzyme cleaves the Fe^3+ B12 substrate strand containing 2′OH at the cleavage site in the presence of Fe^3+. […]
Truncations of Fe^2+ H5 and Fe^3+ B12 DNAzymes' Binding Arms: To further investigate the Fe^2+ H5 and Fe^3+ B12 DNAzymes, the DNAzymes were truncated at the 5′ and 3′ ends and tested using the FAM-labeled original substrate strand through activity assays assessed by PAGE gel. […]
Similarly, the pH dependency of Fe^3+ B12 was tested across a range of pH 4.0 to 6.0 with 100 μM FeCl3. […] Fluorescence intensity was monitored over time using a 5′ Alexa Fluor™ 647-labeled substrate and a 3′ Iowa Black™ RQ quencher-labeled DNAzyme at an enzyme-to-substrate ratio of 1:1. […]

## Cc1cc(-c2ccc(S(=O)(=O)O)cc2)c2ccc3c(-c4ccc(S(=O)(=O)O)cc4)cc(C)nc3c2n1 [BCS, bathocuproine disulphonate]
SH-SY5Y cells; 150 μM or 200 μM BCS overnight
  fluorescence intensity of copper DNAzyme: significant decrease

## [Cl-].[Cl-].[Co+2] [CoCl2]
Cultured cell lines
  Fe^3+/Fe^2+ ratio (Fe redox) with elevation of NCOA4: increase

## CC(=O)N(O)CCCCCNC(=O)CCC(=O)N(O)CCCCCNC(=O)CCC(=O)N(O)CCCCCN [DFO, deferoxamine, reference compound]
HepG2 or Hela cells
  decrease of the Fe^3+/Fe^2+ ratio: 2.4 fold

## COC(=O)CNC(=O)C(=O)OC [DMOG]
Cultured cell lines; cells incubated with NCOA4 stimulator
  Fe^3+/Fe^2+ ratio (Fe redox) with elevation of NCOA4: increase

## S=C(S)N1CCCC1 [PDTC, pyrrolidine dithiocarba-mate]
SH-SY5Y cells; 50 PM PDTC
  fluorescence signal of both Cu^+ and Cu^2+ sensor: significant increase
SH-SY5Y cells; addition of PDTC with Cu^2+, dose-dependent manner
  fluorescence signal of both Cu^+ and Cu^2+ sensor: increased

## Amyloid-β (1-40) peptide [Aβ40]
SH-SY5Y cells; pretreated 24 h with monomers, oligomers and fibrils
  fluorescence signals of intracellular Cu^+ and Cu^2+ DNAzyme: enhanced

## Aβ40 oligomers: oligomeric aggregation state of Aβ40
SH-SY5Y cells; 10 μM, 24 h
  fluorescence intensity of Cu^+ and Cu^2+ DNAzyme: significantly increased

## Cu2 iE complement: inactive enzyme strand (TTTCGCCATCTTCTGGTCCTTATAGTGACT; DNA, backbone not given here; further chemistry not fully specified)
[1]
  activity of inactive sequences to fluorophore labeled substrates: minimum activity

## Cu2 iE polyT 3IBFQ: inactive enzyme strand (TTTCGCCATCTTCTTTTTTTTATAGTGACT; DNA, 3' {3IABkFQ}, backbone not given here)
[1]; both fluorophore and quencher labels
  background signal of inactive sequence: minimum background signal

## Cu2 iE polyT: inactive enzyme strand (TTTCGCCATCTTCTTTTTTTTATAGTGACT; DNA, backbone not given here; further chemistry not fully specified)
[1]
  activity of inactive sequences to fluorophore labeled substrates: minimum activity

## Fe^3+ B12 DNAzyme C20T (GCGGCATGCGCGTTTGCGGTACCTAAACGCTCCTAATAGAG; DNA, backbone not given here)
[2]; FAM-labeled original substrate
  activity of mutated DNAzyme strand normalized to original Fe^3+ B12 DNAzyme: heightened activity

## Fe^3+ B12 Original Substrate (2′H) (CTCTATTAGGGAGACTCGCATGCCGC; DNA, backbone not given here)
[3]
  cleavage by the original Fe^3+ B12 DNAzyme: does not cleave

## Fe^3+ B12 Original Substrate (2′OMe) (dCdTdCdTdAdTdTdAmGdGdGdAdGdAdCdTdCdGdCdAdTdGdCdCdGdC)
[3]
  cleavage by the original Fe^3+ B12 DNAzyme: does not cleave

## Fe^3+ B12 Substrate A14G (CTCTATTAGGGAGGCTCGCATGCCGC; listed as DNA, chemistry not fully specified)
[2]
  activity of mutated substrate strand normalized to original Fe^3+ B12 Substrate: heightened activity

## Fe^3+ B12 Substrate C15A (CTCTATTAGGGAGAATCGCATGCCGC; listed as DNA, chemistry not fully specified)
[2]
  activity of mutated substrate strand normalized to original Fe^3+ B12 Substrate: heightened activity
